Test system: KRAS-mutant PDC tumor spheroid with HUVEC/MSC, viability
Assay: Anticancer human tumor 327498-153-R-J2-PDC patient-derived uterine carcinosarcoma cell line growth inhibition [KRAS2]
Details: for IC50: curve of first compound; for viability, T/C: stronger effect = lower value
In short: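 Combination screen of spheroid viability in tumor-cell co-cultures with endothelial (HUVEC) and mesenchymal stem cell stroma. Each agent was tested in half-log dilutions, topping at clinical Cmax or at 10 microM without a known Cmax.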

[1] = second compound 0.1 µM, first compound 0.0316 µM
[2] = second compound 0.1 µM, first compound 0.1 µM
[3] = second compound 0.1 µM, first compound 0.316 µM
[4] = second compound 0.1 µM, first compound 1 µM
[5] = second compound 0.1 µM, first compound 3.16 µM
[6] = second compound 0.1 µM, first compound 10 µM
[7] = second compound 0.316 µM, first compound 0.0316 µM
[8] = second compound 0.316 µM, first compound 0.1 µM
[9] = second compound 0.316 µM, first compound 0.316 µM
[10] = second compound 0.316 µM, first compound 1 µM
[11] = second compound 0.316 µM, first compound 3.16 µM
[12] = second compound 0.316 µM, first compound 10 µM
[13] = second compound 1 µM, first compound 0.0316 µM
[14] = second compound 1 µM, first compound 0.1 µM
[15] = second compound 1 µM, first compound 0.316 µM
[16] = second compound 1 µM, first compound 1 µM
[17] = second compound 1 µM, first compound 3.16 µM
[18] = second compound 1 µM, first compound 10 µM
[19] = second compound 3.16 µM, first compound 0.0316 µM
[20] = second compound 3.16 µM, first compound 0.1 µM
[21] = second compound 3.16 µM, first compound 0.316 µM
[22] = second compound 3.16 µM, first compound 1 µM
[23] = second compound 3.16 µM, first compound 3.16 µM
[24] = second compound 3.16 µM, first compound 10 µM
[25] = second compound 10 µM, first compound 0.0316 µM
[26] = second compound 10 µM, first compound 0.1 µM
[27] = second compound 10 µM, first compound 0.316 µM
[28] = second compound 10 µM, first compound 1 µM
[29] = second compound 10 µM, first compound 3.16 µM
[30] = second compound 10 µM, first compound 10 µM
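Note: spheroids exposed to agents for seven days before reading.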
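Throughout, for viability, T/C: 100% = DMSO vehicle wells so lower means fewer viable cells.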

SMILES	IC50 (second compound 0.1 µM) [nM]	IC50 (second compound 0.316 µM) [nM]	IC50 (second compound 1 µM) [nM]	IC50 (second compound 3.16 µM) [nM]	IC50 (second compound 10 µM) [nM]	viability, T/C [1] [%]	viability, T/C [2] [%]	viability, T/C [3] [%]	viability, T/C [4] [%]	viability, T/C [5] [%]	viability, T/C [6] [%]	viability, T/C [7] [%]	viability, T/C [8] [%]	viability, T/C [9] [%]	viability, T/C [10] [%]	viability, T/C [11] [%]	viability, T/C [12] [%]	viability, T/C [13] [%]	viability, T/C [14] [%]	viability, T/C [15] [%]	other results
CC1OCC2(CCN(c3cnc(Sc4ccnc(N)c4Cl)c(N)n3)CC2)C1N (stereo not given) + COc1cc2nc(C)nc(NC(C)c3cc(N)cc(C(F)(F)F)c3)c2cc1OC1CCOC1	129	85.5	99.3	64.8	< 31.6	72.8	46.9	44.7	34.4	29.3	23.6	61.6	47.5	39.8	32.3	29.6	27.8	61.6	50.2	39.6	viability, T/C [16]: 32.8%; viability, T/C [17]: 27.8%; viability, T/C [18]: 22.7%; viability, T/C [19]: 58%; viability, T/C [20]: 43.3%; viability, T/C [21]: 39.6%; viability, T/C [22]: 28.7%; viability, T/C [23]: 23.5%; viability, T/C [24]: 23.7%; viability, T/C [25]: 49.5%; viability, T/C [26]: 37.5%; viability, T/C [27]: 31.2%; viability, T/C [28]: 25.2%; viability, T/C [29]: 25.3%; viability, T/C [30]: 16.2%
Cn1nccc1Nc1nccc(-c2cc3c(s2)C(C)(C)N(CCN2CCOCC2)C3=O)n1 + COc1cc2nc(C)nc(NC(C)c3cc(N)cc(C(F)(F)F)c3)c2cc1OC1CCOC1	851	560	826	531	47.2	72.8	73.2	57.6	46.1	44	31.9	82.8	67	52.5	47	37.9	31.6	67.8	65.9	53.7	viability, T/C [16]: 49.4%; viability, T/C [17]: 41.1%; viability, T/C [18]: 33%; viability, T/C [19]: 64.4%; viability, T/C [20]: 57%; viability, T/C [21]: 55.2%; viability, T/C [22]: 45%; viability, T/C [23]: 41.7%; viability, T/C [24]: 36.6%; viability, T/C [25]: 52.7%; viability, T/C [26]: 46.4%; viability, T/C [27]: 44.1%; viability, T/C [28]: 43.8%; viability, T/C [29]: 34.7%; viability, T/C [30]: 25.4%

From PubChem BioAssay AID1963867 (Molecular Pharmacology Branch, DTP, NCI, 2024)
